Patent US6716833B2, “Acetylenic α-amino acid-based sulfonamide hydroxamic acid tace inhibitors” (priority 1999, dated 2004)
Structures can show the parent of a compound that is named as a salt. Where two headings read alike, the source gives them in different places.

How the values were obtained:
[1] = biological target: TNF-α converting enzyme (TACE) (Homo sapiens, UniProt P78536); assay: TACE inhibition (fluorescent peptidyl substrate); assay type: biochemical; details: read-out: TACE IC50
Experimental: Using 96-well black microtiter plates, each well receives a solution composed of 10 μL TACE (final concentration 1 μg/mL), 70 μL Tris buffer, pH 7.4 containing 10% glycerol (final concentration 10 mM), and 10 μL of test compound solution in DMSO (final concentration 1 μM, DMSO concentration <1%) and incubated for 10 minutes at room temperature.
The reaction is read (excitation 340 nm, emission 420 nm) for 10 min. and the increase in fluorescence over time is plotted as a linear line. The slope of the line is calculated and represents the reaction rate.
The linearity of the reaction rate is confirmed (r^2>0.85). The mean (x±sem) of the control rate is calculated and compared for statistical significance (p<0.05) with drug-treated rates using Dunnett's multiple comparison test.

[2] = biological target: MMP-9 (Homo sapiens, UniProt P14780); assay: MMP-9 inhibition (thiopeptide or fluorescent peptide substrate); assay type: biochemical
MMP-9, sequence (P14780 94-707): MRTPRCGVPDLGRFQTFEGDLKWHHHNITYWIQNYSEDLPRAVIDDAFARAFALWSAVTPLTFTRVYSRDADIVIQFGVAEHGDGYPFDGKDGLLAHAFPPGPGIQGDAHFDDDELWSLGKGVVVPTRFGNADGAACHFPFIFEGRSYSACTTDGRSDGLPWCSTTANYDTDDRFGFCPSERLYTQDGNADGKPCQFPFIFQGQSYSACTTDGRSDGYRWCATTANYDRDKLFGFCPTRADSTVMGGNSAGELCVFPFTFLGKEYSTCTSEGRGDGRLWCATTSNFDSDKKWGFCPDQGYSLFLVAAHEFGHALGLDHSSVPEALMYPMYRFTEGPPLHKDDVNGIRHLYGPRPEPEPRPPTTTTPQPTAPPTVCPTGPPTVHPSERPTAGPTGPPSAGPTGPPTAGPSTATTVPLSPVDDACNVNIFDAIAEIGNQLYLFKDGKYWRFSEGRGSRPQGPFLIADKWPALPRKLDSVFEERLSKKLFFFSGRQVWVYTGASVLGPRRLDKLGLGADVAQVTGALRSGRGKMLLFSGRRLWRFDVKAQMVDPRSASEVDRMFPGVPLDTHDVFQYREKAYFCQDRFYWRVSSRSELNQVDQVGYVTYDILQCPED

[3] = biological target: T1, MMP-1 (Homo sapiens, UniProt P03956); assay: MMP-1 inhibition (thiopeptide or fluorescent peptide substrate); assay type: biochemical
T1 sequence (P03956 100-469): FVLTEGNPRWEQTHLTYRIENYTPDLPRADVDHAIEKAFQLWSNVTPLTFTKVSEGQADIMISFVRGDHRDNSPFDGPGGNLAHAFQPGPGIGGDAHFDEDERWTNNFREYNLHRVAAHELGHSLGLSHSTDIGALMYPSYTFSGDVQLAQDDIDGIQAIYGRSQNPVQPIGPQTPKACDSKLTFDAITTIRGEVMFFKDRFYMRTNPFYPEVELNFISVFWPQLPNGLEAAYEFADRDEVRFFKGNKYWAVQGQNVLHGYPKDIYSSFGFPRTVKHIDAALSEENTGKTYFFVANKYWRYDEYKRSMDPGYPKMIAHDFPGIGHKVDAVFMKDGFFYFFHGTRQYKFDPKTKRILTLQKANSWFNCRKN

[4] = tested on: THP-1 cells; assay: THP-1 soluble protein assay, soluble TNF-α (ELISA); assay type: cell-based, human; details: for inhibition at 3 µM: Homo sapiens, THP-1, 3 μM, read-out: THP % Inhibition @ 3 μM
Experimental: Each vial of cells are cultured for about two weeks prior to being used for an assay and then are used for only 4 to 6 weeks to screen compounds.
Cell exposure to DMSO was limited to 0.1% final concentration. […] Plates are placed into an incubator set at 5% CO2 and at 37° C. After 4 hours of incubation, 300 ml/well of tissue culture supernatant (TCS) is removed for use in an TNF-α ELISA.
Percent change in each soluble protein evaluated from the “vehicle positive control” was calculated for each compound concentration with the following formula:
% Change=pg/ml (compound)−pg/ml (veh pos control)/(veh pos control)−pg/ml (veh neg control)×100
For the soluble protein (TNF-α, p75/80, p55/60, IL-8) studies under stimulated conditions, the mean pg/ml of duplicate wells were determined and the results expressed as percent change from “vehicle positive control”.

[5] = biological target: MMP-13 (Homo sapiens, UniProt P45452); assay: MMP-13 inhibition (thiopeptide or fluorescent peptide substrate); assay type: biochemical

TNF-α converting enzyme (TACE), sequence (P78536 215-824, species assumed): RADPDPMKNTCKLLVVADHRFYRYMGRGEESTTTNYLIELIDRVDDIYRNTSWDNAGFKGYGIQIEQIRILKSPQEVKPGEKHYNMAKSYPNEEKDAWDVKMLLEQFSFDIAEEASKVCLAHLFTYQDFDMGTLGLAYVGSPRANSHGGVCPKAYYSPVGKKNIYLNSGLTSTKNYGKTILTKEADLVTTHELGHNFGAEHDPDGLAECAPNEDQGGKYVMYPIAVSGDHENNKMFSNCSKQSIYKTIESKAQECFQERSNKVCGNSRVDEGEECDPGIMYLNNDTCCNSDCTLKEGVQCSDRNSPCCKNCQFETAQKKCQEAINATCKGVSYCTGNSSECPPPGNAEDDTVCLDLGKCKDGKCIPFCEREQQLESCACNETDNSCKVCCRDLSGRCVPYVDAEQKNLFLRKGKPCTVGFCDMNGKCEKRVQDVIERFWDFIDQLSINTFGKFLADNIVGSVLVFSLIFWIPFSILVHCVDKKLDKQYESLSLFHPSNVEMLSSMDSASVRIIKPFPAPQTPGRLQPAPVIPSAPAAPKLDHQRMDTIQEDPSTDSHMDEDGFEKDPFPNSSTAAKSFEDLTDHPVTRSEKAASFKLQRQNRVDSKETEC

Row | Molecule | IC50 [1] | IC50 ([2]; read-out: MMP-9 IC50) | IC50 ([3]; read-out: MMP-1 IC50) | inhibition at 3 µM ([4]; THP-1 cells) | IC50 ([5]; read-out: MMP-13 IC50) | THP % Inhibition @ 3 μM ([4]; THP-1 cells) | other results
1 | CC#CCOc1ccc(S(=O)(=O)NC2(C(=O)NO)CCCCC2)cc1 [Example 138, 1-({[4-(2-Butynyloxy)phenyl]sulfonyl}amino)-N-hydroxycyclohexanecarboxamide] | 27 nM | 2170 nM | 5170 nM | 19% | 619 nM |  | melting point: 82 to 84 °C
2 | CC#CCOc1ccc(S(=O)(=O)NC(CSCCCCCCCCCC/C=C\CC)C(=O)NO)cc1 (stereo not drawn) [Example 170, 2-({[4-(2-butynyloxy)phenyl]sulfonyl}amino)-N-hydroxy-3-[(Z)-11-tetradecenylsulfanyl]propanamide] | 272 nM | 1570 nM | > 10000 nM | 7% | 322 nM |  | 
3 | CC#CCOc1ccc(S(=O)(=O)NC(C(=O)NO)C(C)(C)SCC(=O)O)cc1 (stereo not drawn) [Example 166, tert-Butyl {[2-({[4-2-Butynyloxy)phenyl]sulfonyl}amino)-3-(hydroxyamino)-1,1-dimethyl-3-oxopropyl]sulfanyl Acetic Acid, Sodium Salt] |  | 2940 nM | 1900 nM | 55% | 241 nM |  | 
4 | CN(CC(=O)NO)S(=O)(=O)c1ccc(OCC#Cc2ccc(Cl)cc2)cc1 [Example 132] | 1100 nM | 2370 nM | > 10000 nM |  | 1120 nM | 27% | 
5 | CC#CCOc1ccc(S(=O)(=O)NC(CSC)C(=O)NO)cc1 (stereo not drawn) [Example 167] | 3.5 nM | 228 nM | 1740 nM |  |  | 77% | 
6 | 2-[(4-but-2-Ynylthiophenylsulfonyl)methylamino]-N-hydroxyacetamide [Example 134] |  | 111 nM | 4950 nM |  | 84 nM | 14% | 
7 | CC#CCOc1ccc(S(=O)(=O)NC(C)(C)C(=O)NO)cc1 [Example 35, 2-(4-but-2-ynyloxy-Benzenesulfonylamino)-N-hydroxy-2-methyl-propionaiwde] | 12.9 nM | 1380 nM |  | 9% | 396 nM |  | 
8 | CC#CCOc1ccc(S(=O)(=O)N2CCN(S(C)(=O)=O)CC2C(=O)NO)cc1 (stereo not drawn) [Example 227, 1-(4-but-2-ynyloxy-Benzenesulfonyl)-4-methanesulfonyi-piperazine-2-carboxylic Acid Hydroxyamide] |  | 51 nM | 96 nM | 81% | 6.4 nM |  | 
9 | CC1(C)SCCN(S(=O)(=O)c2ccc(OCC#CCO)cc2)C1C(=O)NO (stereo not drawn) [Example 61, 4-[4-(4-Hydroxy-but-2-ynyloxy)-benzenesulfonyl]-2,2-dimethyl-thiomorpholine-3-carboxylic Acid Hydroxyamide] |  |  |  |  |  |  | IC50 ([1]; Table 10): 40 nM; IC50 ([2]; MMP-9 IC50, Table 10): 70 nM; IC50 ([3]; Table 10, read-out: MMP-1 IC50): 24 nM; inhibition at 3 µM ([4]; Table 10): 89%; IC50 ([5]; Table 10, read-out: MMP-13 IC50): 13 nM
10 | CC#CCOc1ccc(S(=O)(=O)N(C)[C@H](CSC)C(=O)NO)cc1 [Example 154] | 3.3 nM | 19 nM | 47 nM | 90% | 5.4 nM |  | 
11 | CC#CCOc1ccc(S(=O)(=O)N2CCSC(CC)(CC)C2C(=O)NO)cc1 (stereo not drawn) [Example 238] |  |  |  |  |  |  | IC50 ([1]; Table 9): 228 nM; IC50 ([3]; Table 9, read-out: MMP-1 IC50): 38 nM; THP % Inhibition @ 3 μM ([4]; Table 9): 73%; IC50 ([5]; Table 9, read-out: MMP-13 IC50): 6.8 nM
12 | 2-[[4-Butynyloxy-phenylsulfonyl]-amino]-N-hydroxy-3-(pyridinylthio)propanamide [Example 169] | 2.9 nM | 160 nM | 1910 nM |  | 28 nM | 77% | 
13 | CC#CCOc1ccc(S(=O)(=O)N2C[C@@H](CNC(=O)OC(C)(C)C)SC(C)(C)[C@@H]2C(=O)NO)cc1 [Example 273, tert-Butyl{(2R,5S)-4-{[4-(2-butynyloxy)phenyl]sulfonyl}-5-[(hydroxyamino)carbonyl]-6,6-dimethylthiomorpholinyl}methylcarbamate] |  |  |  |  |  |  | IC50 ([1]; Table 11): 87 nM; IC50 ([2]; Table 11, read-out: MMP-9 IC50): 61 nM; inhibition at 3 µM ([4]; Table 11): 90%
14 | CC#CCOc1ccc(S(=O)(=O)N(C)C(C(=O)NO)C(C)(C)SCCN2CCCC2C(=O)OC)cc1 (stereo not drawn) [Example 145] | 109 nM | 7.1 nM | 18 nM |  | 2.5 nM | 83% | 
15 | CC#CCOc1ccc(S(=O)(=O)N[C@@H](C(=O)NO)C(C)(C)C)cc1 [Example 106, (2R)-2-({[4-(2-Butynyloxy)phenyl]sulfonyl)amino)-N-hydroxy-3,3-dimethylbutanamide] | 17 nM | 224 nM | 880 nM | 91% | 41 nM |  | 
16 | CC#CCOc1ccc(S(=O)(=O)NC(C)C(=O)NO)cc1 (stereo not drawn) [Example 30, 2-(4-but-2-ynyloxy-Benzenesulfonylamino)-N-hydroxy-propionamide] | 6 nM | 262 nM | 4390 nM | 60% | 40 nM |  | 
17 | CC#CCOc1ccc(S(=O)(=O)N2C[C@H](CNC(=O)OC(C)(C)C)SC(C)(C)[C@@H]2C(=O)NO)cc1 [Example 274, tert-Butyl{(2S,5S)-4-{[4-(2-butynyloxy)phenyl]sulfonyl}-5-[(hydroxyamino)carbonyl]-6,6-dimethylthiomorpholinyl}methylcarbamate] |  |  |  |  |  |  | IC50 ([1]; Table 11): 59 nM; IC50 ([2]; Table 11, read-out: MMP-9 IC50): 107 nM; THP % Inhibition @ 3 μM ([4]; Table 11): 84%
18 | CC#CCOc1ccc(S(=O)(=O)NC(CSCc2ccccc2)C(=O)NO)cc1 (stereo not drawn) [Example 168] | 4.5 nM | 141 nM | 1970 nM |  |  | 62% | 
19 | CC#CCOc1ccc(S(=O)(=O)NC(C(=O)NO)C(C)(C)SCc2cccnc2)cc1 (stereo not drawn) [Example 161] | 6.4 nM | 130 nM | 476 nM |  | 7.9 nM | 81% | 
20 | CC#CCOc1ccc(S(=O)(=O)N2CCSC3(CCCCC3)C2C(=O)NO)cc1 (stereo not drawn) [Example 237] |  |  |  |  |  |  | IC50 ([1]; Table 9): 212 nM; IC50 ([3]; Table 9, read-out: MMP-1 IC50): 62 nM; THP % Inhibition @ 3 μM ([4]; Table 9): 90%; IC50 ([5]; Table 9, read-out: MMP-13 IC50): 12 nM
21 | CC#CCOc1ccc(S(=O)(=O)NCC(=O)NO)cc1 [Example 25, 2-(4-but-2-ynyloxy-Benzenesulfonylamino)-N-hydroxy-acetamide] | 4.8 nM | 753 nM |  | 39% |  |  | MMP-1 % inhibition (10) ([3]; at (10), concentration unit not given): 47%(10)
22 | CC#CCOc1ccc(S(=O)(=O)N[C@@H](C(=O)NO)[C@@H](C)CC)cc1 [Example 105, (2R,3S)-2-({[4-(2-Butynyloxy)phenyl]sulfonyl}amino)-N-hydroxy-3-methylpentanamide] | 6.8 nM | 213 nM | 1740 nM | 87% | 52 nM |  | 
23 | CC#CCOc1ccc(S(=O)(=O)N(CC#CCN(CC)CC)C(C(=O)NO)C(C)C)cc1 (stereo not drawn) [Example 126] | 73 nM | 149 nM | 212 nM |  | 36 nM | 93% | 
24 | CC#CCOc1ccc(S(=O)(=O)NC(C(=O)NO)C(C)C)cc1 (stereo not drawn) [Example 27, 2-(4-but-2-ynyloxy-Benzenesulfonylamino)-N-hydroxy-3-methyl-butyramide] | 32 nM |  |  | 75% |  |  | IC50 ([2]; MMP-9 IC50): 42 nM; IC50 ([3]; MMP-1 IC50): 2960 nM; IC50 ([5]; MMP-13 IC50): 18 nM
